The data set has as its system CCRIS mutagenicity, Ames/micronucleus/aberration tests. In words: CCRIS mutagenicity studies.
Setting [1] is: Test System: AMES SALMONELLA TYPHIMURIUM, Strain/Indicator: TA98, Metabolic Activation: RAT, LIVER, S-9, AROCLOR 1254, Method: STANDARD PLATE.
Where [2] appears, read: Test System: AMES SALMONELLA TYPHIMURIUM, Strain/Indicator: TA98, Metabolic Activation: NONE, Method: PREINCUBATION
[3] abbreviates: Test System: AMES SALMONELLA TYPHIMURIUM, Strain/Indicator: TA100, Metabolic Activation: NONE, Method: PREINCUBATION
[4] abbreviates: Test System: AMES SALMONELLA TYPHIMURIUM, Strain/Indicator: TA98, Metabolic Activation: NONE, Method: STANDARD PLATE.
The mark [5] stands for this setting: Test System: AMES SALMONELLA TYPHIMURIUM, Strain/Indicator: TA100, Metabolic Activation: NONE, Method: STANDARD PLATE.
Setting [6] is: Test System: AMES SALMONELLA TYPHIMURIUM, Strain/Indicator: TA100, Metabolic Activation: RAT, LIVER, S-9, AROCLOR 1254, Method: STANDARD PLATE.
The mark [7] stands for this setting: Test System: AMES SALMONELLA TYPHIMURIUM, Strain/Indicator: TA98, Metabolic Activation: HAMSTER, LIVER, S-9, AROCLOR 1254, Method: PREINCUBATION
Where [8] appears, read: Test System: AMES SALMONELLA TYPHIMURIUM, Strain/Indicator: TA98, Metabolic Activation: RAT, LIVER, S-9, AROCLOR 1254, Method: PREINCUBATION
The mark [9] stands for this setting: Test System: AMES SALMONELLA TYPHIMURIUM, Strain/Indicator: TA100, Metabolic Activation: HAMSTER, LIVER, S-9, AROCLOR 1254, Method: PREINCUBATION
Setting [10] is: Test System: AMES SALMONELLA TYPHIMURIUM, Strain/Indicator: TA100, Metabolic Activation: RAT, LIVER, S-9, AROCLOR 1254, Method: PREINCUBATION
The mark [11] stands for this setting: Test System: AMES SALMONELLA TYPHIMURIUM, Strain/Indicator: TA1535, Metabolic Activation: HAMSTER, LIVER, S-9, AROCLOR 1254, Method: PREINCUBATION
Setting [12] is: Test System: AMES SALMONELLA TYPHIMURIUM, Strain/Indicator: TA1535, Metabolic Activation: NONE, Method: PREINCUBATION
Where [13] appears, read: Test System: AMES SALMONELLA TYPHIMURIUM, Strain/Indicator: TA1535, Metabolic Activation: RAT, LIVER, S-9, AROCLOR 1254, Method: PREINCUBATION
The mark [14] stands for this setting: Test System: AMES SALMONELLA TYPHIMURIUM, Strain/Indicator: TA1537, Metabolic Activation: HAMSTER, LIVER, S-9, AROCLOR 1254, Method: PREINCUBATION
The mark [15] stands for this setting: Test System: AMES SALMONELLA TYPHIMURIUM, Strain/Indicator: TA1537, Metabolic Activation: NONE, Method: PREINCUBATION
The mark [16] stands for this setting: Test System: AMES SALMONELLA TYPHIMURIUM, Strain/Indicator: TA1537, Metabolic Activation: RAT, LIVER, S-9, AROCLOR 1254, Method: PREINCUBATION

Calls of active or inactive are those of the source. The rule behind the calls is not given here.

For the molecule `CCCCCCCCCCCCN=C(N)N`, the mutagenic call reads like this: (End Point: In vitro chromosomal aberrations, Test System: Cultured human (male) lymphocytes, Metabolic Activation: None) “inactive; negative”; (End Point: In vitro chromosomal aberrations, Test System: Cultured human (male) lymphocytes, Metabolic Activation: S-9) “inactive; negative”; (End Point: In vivo micronucleus, Test System: Blood erythrocytes, Species: Mouse, Strain/Sex: ICR (male and female), 5-20/sex/dose, Route: Oral) “inactive; negative”; (End Point: In vivo micrunucleus, Test System: Bone marrow polychromatic erythrocytes, Species: Mouse, Strain/Sex: Males and females, Route: Oral) “inactive; negative”; (Test System: Ames Salmonella typhimurium, Strain/Indicator: TA98, Metabolic Activation: None, Method: Plate incorporation) “inactive; negative”; (Test System: Ames Salmonella typhimurium, Strain/Indicator: TA98, Metabolic Activation: Rat, Liver, S-9, Aroclor, Method: Plate incorporation) “inactive; negative”. The mutagenic call (Test System: Ames Salmonella typhimurium, Strain/Indicator: TA100, Metabolic Activation: None, Method: Plate incorporation) was “inactive; negative”; the mutagenic call (Test System: Ames Salmonella typhimurium, Strain/Indicator: TA100, Metabolic Activation: Rat, Liver, S-9, Aroclor, Method: Plate incorporation) is “inactive; negative”; the mutagenic call (Test System: Ames Salmonella typhimurium, Strain/Indicator: TA1535, Metabolic Activation: None, Method: Plate incorporation) was “inactive; negative”; the mutagenic call (Test System: Ames Salmonella typhimurium, Strain/Indicator: TA1535, Metabolic Activation: Rat, Liver, S-9, Aroclor, Method: Plate incorporation) is “inactive; negative”; the mutagenic call (Test System: Ames Salmonella typhimurium, Strain/Indicator: TA1537, Metabolic Activation: None, Method: Plate incorporation) is “inactive; negative”; the mutagenic call (Test System: Ames Salmonella typhimurium, Strain/Indicator: TA1537, Metabolic Activation: Rat, Liver, S-9, Aroclor, Method: Plate incorporation) was “inactive; negative”. For the same molecule, the mutagenic call is, setting by setting: (Test System: Chinese hamster ovary (CHO) cells, Strain/Indicator: CHO/6-Thioguanine, Metabolic Activation: None) “inactive; negative”; (Test System: Chinese hamster ovary (CHO) cells, Strain/Indicator: CHO/6-Thioguanine, Metabolic Activation: S-9) “inactive; negative”; (Test System: E. coli, Strain/Indicator: WP2uvrA, Metabolic Activation: None, Method: Plate incorporation) “inactive; negative”; (Test System: E. coli, Strain/Indicator: WP2uvrA, Metabolic Activation: Rat, Liver, S-9, Method: Plate incorporation) “inactive; negative”.

Take `CC(=O)N(C)c1ccc(N=Nc2ccc(N(C)C)cc2)cc1`: the mutagenic call is “active; positive” (Test System: AMES SALMONELLA TYPHIMURIUM, Strain/Indicator: TA98, Metabolic Activation: RAT, LIVER, S-9, POLYCHLORINATED BIPHENYLS, Method: PREINCUBATION) and “active; positive” (Test System: AMES SALMONELLA TYPHIMURIUM, Strain/Indicator: TA100, Metabolic Activation: RAT, LIVER, S-9, POLYCHLORINATED BIPHENYLS, Method: PREINCUBATION).

Take `CN1CC[C@]23c4c5ccc(O)c4O[C@H]2[C@@H](O)C=C[C@H]3[C@H]1C5`: the mutagenic call under setting [1] was “inactive; negative”.

Turning to `CC(=O)O[C@H]1[C@H](OC23C=C(C)C4(CC4)C(C)(O)C2C(=O)C(C)(C)C3)O[C@H](CO)[C@@H](OC(=O)/C=C\c2ccc(O)cc2)[C@@H]1O` (stereo not given in full), the mutagenic call is “active; positive” under setting [2] and “active; positive” under setting [3].

As to `O=C(Nc1ccccc1Cl)c1csc([N+](=O)[O-])c1`, the mutagenic call is “active; positive” under setting [4] and “active; positive” under setting [5].

As to `CC1c2cc(F)ccc2-c2ccc(F)cc21`, the mutagenic call under setting [6] was “active; positive”.

With `c1cc2ccc3cccc4ncc(c1)c2c34`, the mutagenic call is “active; positive” under setting [1] and “active; positive” under setting [6].

Take `CC(O)CN(N=O)C(N)=O` (stereo not given): the mutagenic call reads like this: (Test System: E. COLI B, Strain/Indicator: H/R30R, Metabolic Activation: NONE) “active; positive”; (Test System: E. COLI B, Strain/Indicator: HS30R, Metabolic Activation: NONE) “active; positive”.

As to `c1ccc2c(c1)-c1cc3ccccc3cc1[C@@H]1N[C@H]21`, the mutagenic call under setting [2] was “active; positive”, the mutagenic call under setting [4] is “active; positive” and the mutagenic call under setting [5] was “active; positive”.

For `CC[C@H]1OC(=O)[C@H](C)[C@@H](O[C@H]2C[C@@](C)(OC)[C@@H](O)[C@H](C)O2)[C@H](C)[C@@H](O[C@@H]2O[C@H](C)C[C@H](N(C)C)[C@H]2O)[C@](C)(O)C[C@@H](C)C(=O)[C@H](C)[C@@H](O)[C@]1(C)O`, the mutagenic call is “inactive; negative” (End Point: AMES SALMONELLA TYPHIMURIUM, Test System: TA98, Metabolic Activation: NONE, Method: STANDARD PLATE); “inactive; negative” (End Point: AMES SALMONELLA TYPHIMURIUM, Test System: TA100, Metabolic Activation: NONE, Method: STANDARD PLATE); “inactive; negative; testing limited by solubility of the chemical” (End Point: IN VITRO CHROMOSOMAL ABERRATIONS, Test System: CHO CELLS, Metabolic Activation: NONE); “inactive; negative; testing limited by solubility of the chemical” (End Point: IN VITRO CHROMOSOMAL ABERRATIONS, Test System: CHO CELLS, Metabolic Activation: RAT, LIVER, S-9, AROCLOR 1254); “inactive; negative” under setting [7]; “inactive; negative” under setting [2]. The mutagenic call reads like this: under setting [8], “inactive; negative”; under setting [9], “inactive; negative”; under setting [3], “inactive; negative”; under setting [10], “inactive; negative”; under setting [11], “inactive; negative”; under setting [12], “inactive; negative”. Also, the mutagenic call is “inactive; negative” under setting [13]; “inactive; negative” under setting [14]; “inactive; negative” under setting [15]; “inactive; negative” under setting [16]; “inactive; negative” (Test System: MOUSE LYMPHOMA, Strain/Indicator: L5178Y (TK+/TK-), Metabolic Activation: RAT, LIVER, S-9, AROCLOR 1254, Method: SUSPENSION/PLATE).

With `Cc1cc(N)c(C)c2c1[nH]c1ccc(O)cc12`, the mutagenic call is “inactive; negative” under setting [4]; “active; positive” (Test System: AMES SALMONELLA TYPHIMURIUM, Strain/Indicator: TA98, Metabolic Activation: RAT LIVER S-9, AROCLOR 1254, Method: STANDARD PLATE); “inactive; negative” under setting [5]; “inactive; negative” (Test System: AMES SALMONELLA TYPHIMURIUM, Strain/Indicator: TA100, Metabolic Activation: RAT LIVER S-9, AROCLOR 1254, Method: STANDARD PLATE).

`CC(=O)N(O)c1ccc(/C=C\c2ccccc2)cc1`: the mutagenic call (Test System: UDS HUMAN FIBROBLASTS, Strain/Indicator: THY INCORP (NON-S-PHASE), Metabolic Activation: NONE, Method: AUTORADIOGRAPHY) was “active; positive”.

Turning to `NC(=O)CCCCC(N)=O`, the mutagenic call under setting [7] was “inactive; negative”; the mutagenic call under setting [2] is “inactive; negative”; the mutagenic call under setting [8] is “inactive; negative”; the mutagenic call under setting [9] was “inactive; negative”; the mutagenic call under setting [3] is “inactive; negative”; the mutagenic call under setting [10] was “inactive; negative”. The mutagenic call is “inactive; negative” under setting [11]; “inactive; negative” under setting [12]; “inactive; negative” under setting [13]; “inactive; negative” under setting [14]; “inactive; negative” under setting [15]; “inactive; negative” under setting [16].

The values are drawn from PubChem BioAssay AID1259407 (Chemical Carcinogenesis Research Information System (CCRIS), 2018).
